# Assay results: patent publication US20100256214A1, “EPH RECEPTOR LIGANDS AND METHODS OF USE” (Burnham Institute for Medical Research, priority 2009, published 2010)
# Tests used:
# [1] = tested on: EphA and EphB receptors; assay: ELISA, ephrin-A5 AP / ephrin-B2 AP binding to immobilized EphA and EphB receptor Fc fusion proteins
# Experimental: FIGS. 3A and 3B. A. Ephrin-A5 AP binding to immobilized EphA receptor Fc fusion proteins and ephrin-B2 AP binding to immobilized EphB receptor Fc fusion proteins were measured in the presence of the indicated concentrations of compounds 1 and 2. […] Error bars indicate standard error from 3 measurements. B. IC50 values for inhibition of EphA4 AP and EphA2 AP binding to the indicated immobilized ephrins by compounds 1 and 2.
# ELISA Assays and K, Determination—Protein A-coated wells (Pierce Biotecnology, Rockford, Ill.) were used to immobilize ephrin Fc fusion proteins (R&D Systems, Minneapolis, Minn.). Compounds at different concentrations were incubated with EphA4 AP (Cheng and Flanagan, (1994) Cell 79(1), 157-168) or EphA2 AP (Koolpe et al. (2002) J Biol Chem 277(49), 46974-46979) for 3 hours. Alternatively, Eph receptor Fc fusion proteins were immobilized on protein A-coated wells and ephrin-A5 AP (Menzel et al. (2001) Developmental Biology 230(1), 74-88) or ephrin-B2 AP (GeneHunter, Nashville, Tenn.) were added with the compounds. The amount of bound AP-fusion protein was quantified using pNPP as the substrate. Alkaline phosphatase activity from wells with Fc only was subtracted as background. […]
# [2] = tested on: EphB2; assay: EphB2 tyrosine phosphorylation in COS7 cells; assay type: cell-based; conditions: COS7 cells stimulated with ephrin-B2 Fc
# [3] = biological target: EphA2 (Homo sapiens, UniProt P29317); assay: EphA2 tyrosine phosphorylation in HUVE endothelial cells treated with TNFα; assay type: cell-based; set-up: endogenous in cells
# Experimental: FIGS. 6A-6F. A. HT22 neuronal cells pretreated with the indicated concentrations of compounds 1 or 2 for 15 min were stimulated with 0.5 μg/mL ephrin-A5 Fc (+) or Fc as a control (−) for 20 min in the continued presence of the compounds. EphA4 immunoprecipitates were probed with anti-phosphotyrosine antibody (PTyr) and reprobed for EphA4. C indicates immunoprecipitations performed with control antibodies from non-immunized rabbits. […] Error bars represent the standard error from 4 experiments for compound 1 and 3 experiments for compound 2. […] C. COS7 cells pretreated with the indicated concentrations of compounds 1 or 2 for 15 min were stimulated with 0.1 μg/mL ephrin-A1 Fc or Fc as a control in the continued presence of the compounds. EphA2 immunoprecipitates were probed with anti-phosphotyrosine antibody (PTyr) and reprobed for EphA2. C indicates immunoprecipitations performed with control antibodies. […] Levels of EphA2 phosphorylation quantified from immunoblots and normalized to the amount of immunoprecipitated EphA2 were also performed. […]
# Measurement of Receptor Tyrosine Phosphorylation in Cells—HT22 neuronal cells, which endogenously express EphA4, are derived from immortalized mouse hippocampal neurons (Li et al. (1997) Neuron 19(2), 453-463). […] The protein concentration was calculated using the BCA protein assay kit (Pierce Biotecnology, Rockford, Ill.). […]
# [4] = biological target: EphA4 (Mus musculus, UniProt Q03137); assay: ELISA, EphA4 AP binding to immobilized biotinylated KYL peptide; set-up: made in house; conditioned culture medium used
# Experimental: Chemical Library Screening for EphA4 Inhibitors—A 96-well format in vitro assay was used for compound screening. Polystyrene high binding capacity plates (Corning, Corning, N.Y.) were incubated overnight at 4° C. with 2 μg/mL streptavidin (Pierce Biotecnology, Rockford, Ill.) diluted in borate buffer 0.1 M pH 8.7 and then coated by overnight incubation with 0.1 μM of biotinylated KYL peptide (Murai et al. (2003) Mol Cell Neurosci 24(4), 1000-1011) in binding buffer (Tris-buffered saline (TBS; 150 mM NaCl, 50 mM Tris-HCl, pH 7.5) with 1 mM CaCl2 and 0.01% Tween 20). Compounds were added to the wells at 10 μg/mL in 100% dimethylsulfoxide (DMSO) together with EphA4 alkaline phosphatase fusion protein (EphA4 AP) produced from transfected cells. Cell culture medium containing the secreted EphA4 AP was diluted 1:16 in binding buffer. The mixture was incubated for 3 hours at room temperature before washing with binding buffer and adding p-nitrophenylphosphate (pNPP) (Pierce Biotecnology, Rockford, Ill.) as the substrate. After 1 hour the reaction was stopped by adding 2N NaOH and the absorbance at 405 nm was measured using an ELISA plate reader Alkaline phosphatase activity from wells where alkaline phosphatase (AP) was added instead of EphA4 AP was subtracted as background. The inhibitory activity of the compounds was calculated by dividing the absorbance observed in the presence of each compound and the absorbance from wells where no compound was added. Compounds with inhibitory activity higher than 50% were considered hits.
# EphA4, sequence (Q03137 20-547 limits assumed): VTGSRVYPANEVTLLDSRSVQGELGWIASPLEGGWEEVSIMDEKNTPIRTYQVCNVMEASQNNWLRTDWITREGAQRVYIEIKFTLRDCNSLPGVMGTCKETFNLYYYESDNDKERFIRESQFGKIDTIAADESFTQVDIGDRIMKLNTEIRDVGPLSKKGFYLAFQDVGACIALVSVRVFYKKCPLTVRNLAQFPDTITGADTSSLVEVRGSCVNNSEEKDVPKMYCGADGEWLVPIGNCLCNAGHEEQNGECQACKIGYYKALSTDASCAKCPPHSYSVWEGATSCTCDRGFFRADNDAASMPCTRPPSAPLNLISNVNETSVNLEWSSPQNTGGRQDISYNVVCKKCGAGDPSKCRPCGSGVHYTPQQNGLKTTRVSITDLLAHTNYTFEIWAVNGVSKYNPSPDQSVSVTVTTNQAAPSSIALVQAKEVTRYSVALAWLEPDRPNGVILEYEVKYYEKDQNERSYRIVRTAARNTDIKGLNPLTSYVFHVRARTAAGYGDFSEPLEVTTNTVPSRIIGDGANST
# EphA2, sequence (P29317 24-976): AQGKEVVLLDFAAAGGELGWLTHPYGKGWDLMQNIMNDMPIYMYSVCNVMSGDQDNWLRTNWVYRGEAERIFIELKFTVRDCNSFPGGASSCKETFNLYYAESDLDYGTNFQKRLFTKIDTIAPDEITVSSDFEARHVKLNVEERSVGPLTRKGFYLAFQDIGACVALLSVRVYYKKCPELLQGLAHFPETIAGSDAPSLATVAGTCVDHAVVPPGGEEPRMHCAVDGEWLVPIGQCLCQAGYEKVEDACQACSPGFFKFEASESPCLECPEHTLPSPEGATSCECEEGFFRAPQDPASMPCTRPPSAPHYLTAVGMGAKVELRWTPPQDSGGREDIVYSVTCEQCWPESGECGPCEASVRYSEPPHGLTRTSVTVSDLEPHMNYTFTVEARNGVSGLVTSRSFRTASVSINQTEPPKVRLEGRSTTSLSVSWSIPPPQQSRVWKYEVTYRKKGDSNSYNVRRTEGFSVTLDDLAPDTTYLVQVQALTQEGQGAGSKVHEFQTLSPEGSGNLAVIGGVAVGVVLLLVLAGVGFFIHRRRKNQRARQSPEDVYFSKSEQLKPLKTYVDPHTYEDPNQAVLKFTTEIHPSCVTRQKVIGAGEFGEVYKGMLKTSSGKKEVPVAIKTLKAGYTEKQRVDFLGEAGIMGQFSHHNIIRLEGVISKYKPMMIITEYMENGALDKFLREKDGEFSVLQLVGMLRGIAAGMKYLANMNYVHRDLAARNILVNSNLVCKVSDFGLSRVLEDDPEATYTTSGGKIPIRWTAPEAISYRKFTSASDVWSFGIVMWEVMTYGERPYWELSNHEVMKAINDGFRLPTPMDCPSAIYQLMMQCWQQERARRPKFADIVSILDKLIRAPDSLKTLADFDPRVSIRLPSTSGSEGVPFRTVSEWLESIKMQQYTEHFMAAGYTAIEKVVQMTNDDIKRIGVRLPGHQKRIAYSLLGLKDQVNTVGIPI
Compound,selectivity of inhibition of ephrin binding among EphA and EphB receptors [1],phosphorylation of endogenous EphB2 [2],tyrosine phosphorylation of endogenous EphA2 [3],inhibition of EphA4-KYL peptide binding (in words) [4],IC50 ([4]; read-out: IC50 for inhibition of EphA4 AP binding to KYL peptide) [µM]
"Cc1ccc(C)n1-c1ccc(C(=O)O)c(O)c1 [compound 1, 4-(2,5-dimethyl-pyrrol-1-yl)-2-hydroxy-benzoic acid]",efficiently inhibited ephrin binding only to EphA4 and EphA2,did not inhibit,inhibited,inhibit,
"Cc1ccc(C)n1-c1ccc(O)c(C(=O)O)c1 [compound 2, 5-(2,5 dimethyl-pyrrol-1-yl)-2-hydroxy-benzoic acid]",efficiently inhibited ephrin binding only to EphA4 and EphA2,did not inhibit,inhibited,inhibit,3
